# How the values were obtained:
# [1] = tested on: CD34+ cells from cord blood; assay: HSC Expansion Culture, 14 and 21 days (Example 41); format: cell-based, human
# Protocol: CD34+ cells from cord blood were purchased from STEMCELL Technologies.
# Primary human CD34+ cells were isolated by the supplier from cord blood samples using positive immunomagnetic separation techniques. Cells from two separate samples of cord blood were thawed, gradually brought to room temperature, then washed.
# For both samples, cells were primed with an overnight culture in StemSpan with 100 ng/ml each of FLT3L, TPO, SCF, and IL-6. Eighteen hours later (day 1), cells were counted and immunophenotyped (flow cytometry on an Invitrogen Attune N×T cytometer).
# The remainder of cells from both samples were placed into “HSC Expansion Culture” for either 14 days (“14-day expansion”) or 21 days (“21-day expansion”). Numbers of cells placed into HSC Expansion Culture were quantified for “Fold Expansion” calculations described below. […]
# During Expansion Culture, portions of cells were passaged to one or more larger flasks (75 cm^2 or 225 cm^2) if density of cells was greater than ≥1e5 cells/ml. […] Numbers of cells seeded were recorded for “Fold Expansion” calculations, described below.
# Following 21 days in Expansion Culture, a sample was taken from the 21-day expansion flask for counting and analysis of phenotypes (flow cytometry on an Invitrogen Attune N×T cytometer). […] CD34 purity was verified by flow cytometry and counts were recorded for calculation of Per-Assayed-CD34+ Cell Output, described below. […]
# [2] = tested on: expanded cord blood CD34+ cells, lymphoid progenitors; assay: Lymphoid Progenitor Differentiation Culture after Expansion Culture (Example 41); format: cell-based, human; conditions: for Fold Enhancement (vs. unexpanded) of CD10+ lineage output: 14 days Lymphoid Differentiation Culture
# Description: Lymphoid Progenitor Differentiation Cultures (L Diff Cultures) were initiated prior to culture in +Formula I (Day 1 L Diff Culture), following 14 days of culture in +Formula I (14-day +Formula I-expanded L Diff Culture), following 14 days of culture in control conditions (14-day DMSO-expanded L Diff Culture) or following 21 days of culture in +Formula I (21-day +Formula I-expanded L Diff Culture).
# 12-well non-TC-treated plates were coated with StemSpan Lymphoid Differentiation Coating Material (STEMCELL Technologies) by incubation for two hours at room temperature. Immediately prior to initiation of L Diff Culture, wells were washed with PBS.
# Purified CD34+ cells were plated at 20,000 cells per well, in Lymphoid Progenitor Expansion Medium (“LPEM”), comprising StemSpan SFEM II medium (STEMCELL Technologies) with StemSpan Lymphoid Progenitor Expansion Supplement (STEMCELL Technologies). Cells were plated in duplicate, in 500 μl/well, then placed in a humidified incubator at atmospheric oxygen and 5% CO2. Exact cell numbers dispensed per well were quantified with flow cytometry for later calculations.
# On days three or five, an additional 500 μl/well of LPEM was added, then on days seven and eleven, half of the media was removed and replaced with fresh LPEM.
# At seven and fourteen days, cells were analyzed via flow cytometry to quantify lymphoid lineage phenotypes of CD7+/CD5−, CD5+/CD7− and CD7+/CD5+, as well as presence of maturing B cells (CD19+), T cells (CD3+) or NK cells (CD56+).
# “Per-Assayed-CD34+ Cell Output” describes the output of differentiated cells per CD34+ cell placed into Differentiation Culture, and is calculated by dividing the Corrected Count of lineage-positive cells by the number of CD34+ cells placed into quantified at Differentiation Culture initiation following 1, 14, 28, 42 or 64 days in Expansion Culture.
# “Scaled Output” (or Scaled Output per CD34+ cell) describes the number of differentiated cells of a given lineage that may be produced from a single CD34+ cell following both Expansion Cell Culture (if expanded) followed by Differentiation Culture. This quantity is calculated by multiplying Per-Assayed-CD34+ Cell Output by the Fold Expansion of CD34+ cells from day 1 to the day of Differentiation Culture initiation (day 14, 28, 42 or 64). This quantity is synonymous with “per-expanded-dl-CD34+ cell output” used in Example 38 above.
# “Fold Enhancement (vs. unexpanded)” was calculated to fully capture the benefit of Expansion Culture in +Formula I Conditions prior to Differentiation Culture. This quantity was calculated by dividing the Scaled Output output of a given cell population by the Per-Assayed-CD34+ Cell Output of that population from unexpanded cells placed into differentiation culture, as in the equation below. Each fold increase was calculated relative to the same number of days in differentiation culture, e.g. the fold increase of cells differentiated for six days was calculated by dividing the scaled output of expanded cells differentiated for six days by the output of unexpanded cells differentiated for six days. In the case of cells differentiated for 14 days, an exact match in unexpanded cells was not available, so output at differentiation day 13 was used as a denominator.
# [3] = 14 days in +Formula I Expansion Culture
# [4] = 21 days in +Formula I Expansion Culture
compound,measurement,setting,value
CC(C)(C)C(=O)Nc1ccc2c(c1)C(O)c1ccccc1-2 (stereo not shown) [Compound 1.010],fold expansion of CD34+ cells,"[1]; +Formula I Condition (Compound 1.010 8 μM), 14 days",35 fold
same,fold expansion of CD34+ cells,"[1]; +Formula I Condition, 21-day expansion",245 fold
same,Fold Enhancement (vs. unexpanded) of CD7+/CD5+ lineage output,[2]; [3],5.8 fold
same,Fold Enhancement (vs. unexpanded) of CD7+/CD5− lineage output,[2]; [3],6.3 fold
same,Fold Enhancement (vs. unexpanded) of CD7−/CD5+ lineage output,[2]; [3],11 fold
same,Fold Enhancement (vs. unexpanded) of CD10+ lineage output,[2]; [3],5 fold
same,Fold Enhancement (vs. unexpanded) of CD7+/CD5+ lineage output,[2]; [4],238 fold
same,Fold Enhancement (vs. unexpanded) of CD7+/CD5− lineage output,[2]; [4],46 fold
same,Fold Enhancement (vs. unexpanded) of CD7−/CD5+ lineage output,[2]; [4],180 fold
same,Fold Enhancement (vs. unexpanded) of CD10+ lineage output,[2]; [4],37 fold

# From patent publication US20220315895A1, “METHODS OF MAKING OLIGOPOTENT AND UNIPOTENT PRECURSORS” (Transfusion Health, LLC, priority 2019, published 2022)
